Experimental data: patent US20220386573A1, “HUMANIZED MOUSE MODEL WITH HUMAN IMMUNE SYSTEM” (Board of Regents, The University of Texas System, priority 2019, published 2022)

What was measured:
Assay type in all cases: in vivo, mouse
[1] = tested on: NSGW41 H-Mice; assay: E2 administration in drinking water, tolerability; conditions: 1 μM estradiol or above, drinking water ad libitum
Method: (§1) E2 Administration. NSGW41 H-Mice were given drinking water ad libitum containing 1 μM estradiol.

[2] = tested on: NSGW41 H-Mice; assay: T-dependent antibody response to NP16-CGG immunization, E2 water vs plain water
Text: To address the antibody response within NSGW41 H-Mice, 16 NSGW41 H-Mice were segregated into two groups of 8 mice each. One group was fed water containing estrogen (NSGW41 H-Mice) and the other plain water (huNSG^W41), each of them were then i.p. injected with NP16-CGG and Alum. The NSGW41 H-Mice were compared to Jackson Labs CD34^+ humanized mice (Jax CD34^+). […] However, the Jax CD34^+ had dramatically lower titers, correlating with reduced human reconstitution. […] (FIG. 3B).
E2 promotes myeloid lineage differentiation and B2 proliferation. Since estrogen administration had such a dynamic impact on the maturation of antibody response within NSGW41 H-Mice, the cellular composition and lymphoid architecture. B1/B2 cell ratios were compared across HIS platforms following immunization with NP-CGG. […] To investigate the formation of lymphoid follicles and germinal center structures, Jax CD34^+, huNSG, and NSGW41 H-Mice spleens were extracted 10 days post-immunization. […] These findings are supported by IHC staining of huCD20, huCD3 and huKI67 showing germinal center structures in NSGW41 H-Mice (FIG. 5D).
(§2) Immunizations. NSGW41 H-Mice were injected intraperitoneally with 4-hydroxy-3-nitrophenylacetlyl (NP) conjugated to CGG (NP-CGG) (average: 16 NP molecule conjugated with one CGG molecule; Biosearch; 100 μg) in PBS (100 μl) with Alum (100 μl), or 2,4-Dinitrophenyl conjugated to CpG (DNP-CpG) (1 DNP molecule conjugated with one CpG molecule; Eurofins Genomics; 25 μg) in PBS (100 μl) without adjuvant. Sera were collected before injection and at specified time points after injection.
as §1
(§3) Detection of antibodies. Titers of IgM, IgD, IgG and IgA from in vitro culture supernatants of stimulated human and H-Mice B cells or titers of circulating and/or NP-binding/DNP-binding IgM, IgG, and IgA were measured using specific ELISAs. IgE were detected by sandwich ELISAs, using plates coated with anti-human IgE mAb. Serial two-fold diluted serum samples in PBS-(0.05%) Tween 20 (PBS-Tween 20) were added to the plates and incubated for 2 h at 23° C. After washing with PBS-Tween 20, biotin-detection antibody was added. After a final washing, IgE antibodies were detected using streptavidin-horseradish peroxidase. Antigen specific antibody titers are expressed as relative units (RU), defined as the dilution factor needed to reach 50% saturation binding, as calculated using GraphPad Prism® software (GraphPad).
(§4) Flow cytometry. Total B cells and PBMCs were subject to flow cytometry for pre-and-post isolation phenotypic analysis using the following surface markers and fluorophores: PEcy7-anti-human-CD19 (clone H1B19; Biolegend), PE-anti-human-CD27 (clone M-T271; Biolegend), BV421-anti-human-IgD (clone HB-7; Biolegend), FITC-anti-human-IgG (clone G18-145; BD Pharmingen), APC-anti-human-IgA (clone IS11-8E10; Miltenyi Biotec) and APC-Cy7-anti-IgM (clone MHM-88, Biolegend) and run on a BD LSRII (BD Biosciences) with the FACSDiva software (BD Biosciences). Data were analyzed using FlowJo software (FlowJo LLC).

[3] = tested on: NSGW41 H-Mice; assay: T-independent antibody response to DNP-CpG injection, E2 water vs plain water; conditions: DNP-CpG i.p.
Text: While NP16-CGG evaluates the T cell-dependent response, the NSGW41 H-Mice immune system's ability to generate a T cell-independent antibody response was investigated. To do so, 16 mice NSGW41 H-Mice were segregated amongst the E2 and plain water groups and injected with Haptenated TLR9 ligand, DNP-CpG IP. […] Thus, NSGW41 H-Mice receiving E2 treatment can mount a mature antibody response to T-dependent and T-independent antigens complete with class-switched, high affinity antibody production and generation of both plasma and memory B cells.
as §2, §1, §3, §4

[4] = NP16-CGG and alum i.p., E2-water vs plain water

C[C@]12CC[C@@H]3c4ccc(O)cc4CC[C@H]3[C@@H]1CC[C@@H]2O [E2, estradiol]
Adverse effects of drinking water containing estradiol [1]: no adverse effects | Class-switched IgG, IgG1-4, IgA and IgE production [2, 4]: drastically increased | NP7-binding IgM and IgG antibody titers [2, 4]: significantly greater | Number of spleen IgG and IgA class-switched effector, IgD-CD27+ memory B cells and bone marrow CD27+CD38+ plasmablasts/plasma cells [2, 4]: increased number | IgM serum titers ([2]; NP16-CGG and alum i.p., estrogen water (NSGW41 H-Mice) vs plain water (huNSGW41)): comparable | Germinal center B cells ([2]; lymph nodes, 10 days post-immunization with NP-CGG, estrogen pre-conditioned vs untreated): two-fold increase | Class-switched IgG and IgA antibody production [3]: dynamically potentiated | DNP4-binding IgM, IgG and IgA titers [3]: significantly increased | Numbers of IgG+ and IgA+ B cells, splenic IgD-CD27+ memory B cells and bone marrow CD27+CD38+ plasmablasts/plasma cells [3]: increased numbers | Total IgM production [3]: comparable
